In ChEMBL document CHEMBL1821714, “Discovery, synthesis and SAR of azinyl- and azolylbenzamides antagonists of the P2X₇ receptor” (Bioorg Med Chem Lett, 2011):

Test system: not listed separately
Test: Half life in iv dosed rat
Conditions: in vivo

Row | half-life | SMILES
1 | 502 min | Cc1cc(-c2ccc(Cl)c(C(=O)NCC3(O)CCCCCC3)c2)nn1C[C@@H](O)CN.Cl

Biological target: T1, P2X purinoceptor 7 (Homo sapiens) (UniProt Q99572)
T1 sequence (whole entry): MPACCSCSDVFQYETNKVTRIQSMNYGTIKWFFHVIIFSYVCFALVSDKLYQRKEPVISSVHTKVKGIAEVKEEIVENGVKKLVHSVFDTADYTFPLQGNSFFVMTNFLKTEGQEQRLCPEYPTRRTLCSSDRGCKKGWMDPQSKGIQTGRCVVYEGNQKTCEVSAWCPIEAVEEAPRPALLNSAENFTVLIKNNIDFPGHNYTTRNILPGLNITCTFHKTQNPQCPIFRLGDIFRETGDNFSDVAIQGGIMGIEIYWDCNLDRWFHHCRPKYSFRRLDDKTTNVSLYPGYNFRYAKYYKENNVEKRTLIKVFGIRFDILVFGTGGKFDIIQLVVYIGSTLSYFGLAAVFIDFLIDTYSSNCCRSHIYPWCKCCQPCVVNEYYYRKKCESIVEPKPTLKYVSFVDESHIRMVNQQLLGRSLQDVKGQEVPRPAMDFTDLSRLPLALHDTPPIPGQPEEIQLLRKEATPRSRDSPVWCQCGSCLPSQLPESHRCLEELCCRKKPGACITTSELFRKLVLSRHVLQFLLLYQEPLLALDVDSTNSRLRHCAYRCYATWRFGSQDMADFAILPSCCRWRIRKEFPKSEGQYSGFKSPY
Test: Antagonist activity at P2X7R expressed in LPS-activated human monocytes assessed as inhibition of ATP-induced IL1-beta release at 1 uM in presence of low serum concentration
Format: functional, cell-based
Conditions: not given

Row | inhibition | SMILES
2 | 0% | N#Cc1ccc(-c2ccc(Cl)c(C(=O)NCCc3ccccc3Cl)c2)nc1
3 | 0% | Cc1cccnc1-c1ccc(Cl)c(C(=O)NCCc2ccccc2Cl)c1

Second part, the compound before the results:

Row | SMILES | inhibition
4 | Cc1cccc(-c2ccc(Cl)c(C(=O)NCCc3ccccc3Cl)c2)n1 | 0%
5 | CC(=O)c1ccc(-c2ccc(Cl)c(C(=O)NCCc3ccccc3Cl)c2)nc1 | 0%
6 | Cc1ccnc(-c2ccc(Cl)c(C(=O)NCCc3ccccc3Cl)c2)c1 | 0%

Test system: MDCK
Test: Permeability from apical to basolateral side of dog MDCK cells expressing MDR1
Format: ADME, cell-based, Canis lupus familiaris
Conditions: not given

Row | permeability | SMILES
7 | 0.26 ×10⁻⁶ cm/s | Cc1cc(-c2ccc(Cl)c(C(=O)NCC3(O)CCCCCC3)c2)nn1C[C@H](O)CN.Cl
8 | 0.26 ×10⁻⁶ cm/s | Cc1cc(-c2ccc(Cl)c(C(=O)NCC3(O)CCCCCC3)c2)nn1C[C@@H](O)CN.Cl

Biological target: T2, P2X purinoceptor 7 (Homo sapiens, UniProt Q99572)
T2 sequence (Q99572 whole entry): T1 sequence (whole entry)
Test: Antagonist activity at P2X7R expressed in HEK293 cells assessed as inhibition of ATP-induced YO-PRO-1 uptake
Format: functional, cell-based
Conditions: not given

Row | IC50 | SMILES
9 | 12 nM | O=C(NCC1(O)CCCCCC1)c1cc(-c2cc[nH]n2)ccc1Cl
10 | 28 nM | COc1ccc(-c2ccc(Cl)c(C(=O)NCC3(O)CCCCCC3)c2)nn1
11 | 180 nM | O=C(NCC1(O)CCCCCC1)c1cc(-c2ccc(=O)[nH]n2)ccc1Cl

Further lines, the compound ahead of its results:

Row | SMILES | IC50
12 | Cc1cc(-c2ccc(Cl)c(C(=O)NCC3(O)CCCCCC3)c2)nn1C[C@H](O)CN.Cl | 3 nM
13 | Cn1nccc1-c1ccc(Cl)c(C(=O)NCC2(O)CCCCCC2)c1 | 266 nM
14 | Cc1nc(-c2ccc(Cl)c(C(=O)NCC3(O)CCCCCC3)c2)cs1 | 6 nM
15 | Cc1cc(-c2ccc(Cl)c(C(=O)NCC3(O)CCCCCC3)c2)nn1C[C@@H](O)CN.Cl | 0.5 nM

Biological target: T2, P2X purinoceptor 7
Test: Antagonist activity at P2X7R expressed in LPS-stimulated human whole blood assessed as inhibition of ATP-induced IL1-beta release
Format: functional, tissue-based
Conditions: not given

Row | IC50 | SMILES
16 | 610 nM | O=C(NCC1(O)CCCCCC1)c1cc(-c2cc[nH]n2)ccc1Cl
17 | 510 nM | COc1ccc(-c2ccc(Cl)c(C(=O)NCC3(O)CCCCCC3)c2)nn1
18 | 440 nM | Cn1ccc(-c2ccc(Cl)c(C(=O)NCC3(O)CCCCCC3)c2)n1

Continued, compound first:

Row | SMILES | IC50
19 | Cc1cc(-c2ccc(Cl)c(C(=O)NCC3(O)CCCCCC3)c2)nn1C[C@H](O)CN.Cl | 10 nM
20 | Cc1cc(-c2ccc(Cl)c(C(=O)NCC3(O)CCCCCC3)c2)nn1C[C@@H](O)CN.Cl | 3 nM

Test system: not listed separately
Test: Half life in human liver microsomes
Conditions: liver microsomes

Row | half-life | SMILES
21 | 12 min | O=C(NCC1(O)CCCCCC1)c1cc(-c2cc[nH]n2)ccc1Cl
22 | 77 min | COc1ccc(-c2ccc(Cl)c(C(=O)NCC3(O)CCCCCC3)c2)nn1
23 | 3.7 min | Cn1ccc(-c2ccc(Cl)c(C(=O)NCC3(O)CCCCCC3)c2)n1

The remaining lines, values behind:

Row | SMILES | half-life
24 | O=C(NCC1(O)CCCCCC1)c1cc(-c2c[nH]cn2)ccc1Cl | 85 min
25 | Cc1cc(-c2ccc(Cl)c(C(=O)NCC3(O)CCCCCC3)c2)nn1C[C@H](O)CN.Cl | > 120 min
26 | Cc1cc(-c2ccc(Cl)c(C(=O)NCC3(O)CCCCCC3)c2)nn1C[C@@H](O)CN.Cl | > 120 min

Same assay, conditions: microsomes

Row | half-life | SMILES
27 | 22.3 min | O=C(NCC1(O)CCCCCC1)c1cc(-c2cnoc2)ccc1Cl

Test system: not listed separately
Test: Permeability from apical to basolateral side of human Caco2 cells
Format: ADME, cell-based
Conditions: Caco-2, read-out: permeability

Row | Papp A→B | SMILES
28 | 10.5 ×10⁻⁶ cm/s | Cc1cc(-c2ccc(Cl)c(C(=O)NCC3(O)CCCCCC3)c2)nn1C[C@H](O)CN.Cl
29 | 2.98 ×10⁻⁶ cm/s | Cc1cc(-c2ccc(Cl)c(C(=O)NCC3(O)CCCCCC3)c2)nn1C[C@@H](O)CN.Cl

Biological target: T2, P2X purinoceptor 7
Test: Antagonist activity at P2X7R expressed in LPS-activated human monocytes assessed as inhibition of ATP-induced IL1-beta release in presence of low serum concentration
Format: functional, cell-based
Conditions: not given

Row | IC50 | SMILES
30 | 238 nM | Cn1ccc(-c2ccc(Cl)c(C(=O)NCC3(O)CCCCCC3)c2)n1
31 | 460 nM | O=C(NCCc1ccccc1Cl)c1cc(-c2ccc(Cl)cn2)ccc1Cl
32 | 250 nM | Cc1ccc(-c2ccc(Cl)c(C(=O)NCCc3ccccc3Cl)c2)nn1
33 | 668 nM | CC(O)c1ccc(-c2ccc(Cl)c(C(=O)NCCc3ccccc3Cl)c2)nc1 (stereo not drawn)
34 | 1600 nM | O=C(NCCc1ccccc1Cl)c1cc(-c2ccccn2)ccc1Cl
35 | 4600 nM | O=C(NCCc1ccccc1Cl)c1cc(-c2ccc(C(F)(F)F)cn2)ccc1Cl

Continued, compound first:

Row | SMILES | IC50
36 | O=C(NCC1(O)CCCCCC1)c1cc(-c2c[nH]cn2)ccc1Cl | 510 nM
37 | Cc1cc(-c2ccc(Cl)c(C(=O)NCC3(O)CCCCCC3)c2)nn1C[C@H](O)CN.Cl | 7 nM
38 | NC(=O)c1ccc(-c2ccc(Cl)c(C(=O)NCCc3ccccc3Cl)c2)nc1 | 720 nM
39 | Cn1nccc1-c1ccc(Cl)c(C(=O)NCC2(O)CCCCCC2)c1 | > 1000 nM
40 | O=C(NCC1(O)CCCCCC1)c1cc(-c2cnoc2)ccc1Cl | 240 nM
41 | O=C(NCCc1ccccc1Cl)c1cc(-c2ccncc2)ccc1Cl | 5200 nM
42 | CCCCC(CC)CNC(=O)c1cc(-n2ncc(=O)[nH]c2=O)ccc1Cl (stereo not drawn) | 820 nM
43 | COc1ccc(-c2ccc(Cl)c(C(=O)NCCc3ccccc3Cl)c2)nn1 | 490 nM
44 | O=C(NCCc1ccccc1Cl)c1cc(-c2n[nH]c(=O)[nH]c2=O)ccc1Cl | 1050 nM
45 | Cc1ccc(-c2ccc(Cl)c(C(=O)NCCc3ccccc3Cl)c2)nc1 | 110 nM
46 | COC[C@H](O)Cn1c(=O)cnn(-c2ccc(Cl)c(C(=O)NCC3(O)CCCCCC3)c2)c1=O [CE-224535] | 1.3 nM
47 | O=C(NCCc1ccccc1Cl)c1cc(-c2cccnc2)ccc1Cl | 4800 nM
48 | Cc1cc(-c2ccc(Cl)c(C(=O)NCC3(O)CCCCCC3)c2)nn1C[C@@H](O)CN.Cl | 2 nM

Test system: not listed separately
Test: Volume of distribution at steady state in iv dosed rat
Conditions: in vivo

Row | Vd | SMILES
49 | 11.7 L/kg | Cc1cc(-c2ccc(Cl)c(C(=O)NCC3(O)CCCCCC3)c2)nn1C[C@@H](O)CN.Cl

Test system: MDCK
Test: Ratio of permeability from basolateral to apical over apical to basolateral side in dog MDCK cells expressing MDR1
Format: ADME, cell-based, Canis lupus familiaris
Conditions: not given

Row | Ratio | SMILES
50 | 10.5 | Cc1cc(-c2ccc(Cl)c(C(=O)NCC3(O)CCCCCC3)c2)nn1C[C@H](O)CN.Cl
51 | 11.5 | Cc1cc(-c2ccc(Cl)c(C(=O)NCC3(O)CCCCCC3)c2)nn1C[C@@H](O)CN.Cl

Test system: not listed separately
Test: Lipophilicity, log P of the compound
Format: physicochemical
Conditions: octanol/water

Row | logP | SMILES
52 | 2.6 | Cc1cc(-c2ccc(Cl)c(C(=O)NCC3(O)CCCCCC3)c2)nn1C[C@H](O)CN.Cl
53 | 2.6 | Cc1cc(-c2ccc(Cl)c(C(=O)NCC3(O)CCCCCC3)c2)nn1C[C@@H](O)CN.Cl

Test system: not listed separately
Test: Oral bioavailability in rat
Conditions: in vivo

Row | bioavailability | SMILES
54 | 9% | Cc1cc(-c2ccc(Cl)c(C(=O)NCC3(O)CCCCCC3)c2)nn1C[C@@H](O)CN.Cl

Test system: MDCK
Test: Permeability from basolateral to apical side of dog MDCK cells expressing MDR1
Format: ADME, cell-based, Canis lupus familiaris
Conditions: not given

Row | permeability | SMILES
55 | 2.2 ×10⁻⁶ cm/s | Cc1cc(-c2ccc(Cl)c(C(=O)NCC3(O)CCCCCC3)c2)nn1C[C@H](O)CN.Cl
56 | 2.39 ×10⁻⁶ cm/s | Cc1cc(-c2ccc(Cl)c(C(=O)NCC3(O)CCCCCC3)c2)nn1C[C@@H](O)CN.Cl

Test system: not listed separately
Test: Distribution coefficient, log D of the compound
Format: physicochemical
Conditions: octanol/water

Row | logD | SMILES
57 | 1.6 | Cc1cc(-c2ccc(Cl)c(C(=O)NCC3(O)CCCCCC3)c2)nn1C[C@H](O)CN.Cl
58 | 1.6 | Cc1cc(-c2ccc(Cl)c(C(=O)NCC3(O)CCCCCC3)c2)nn1C[C@@H](O)CN.Cl
